In patent US20250360071A1, “AGENT FOR INDUCING CILIUM” (MED R&D Co. Ltd, priority 2022, published 2025):

How the values were obtained:
[1] = test system: HFDPCs; assay: Co-culture system of Caco-2 and HFDPC, hair growth marker expression, Experimental Example 4; type: cell-based, human; conditions: added inside the Caco-2 insert; saponin mixture 5 μg/mL, finasteride 10 μM; after 2, 6 and 12 hours; vs control
Method: An examination was carried out using a co-culture system of Caco-2 and an HFDPC which are human intestinal epithelial cell lines. FIG. 8 is a schematic view illustrating a co-culture system of the present Experimental Example. […] A permeable membrane having a pore size of […] was disposed on the bottom surface of the 96-well insert. […] In a case where the drug is permeable to the intestinal epithelial cells, with the addition of the drug into the inside of the transwell insert of the co-culture system, the drug permeates from the apex side (lumen side) to the basal side (vascular side) of the Caco-2 cells. Furthermore, the drug that permeated acts on the HFDPCs seeded on the receiver plate. A mixture in which each saponin was mixed at a ratio shown in Table 1 below (which may hereinafter be referred to as a “saponin mixture”) was used as a sample for the examination. The saponin mixture was added to the inside of the transwell insert of the co-culture system so that a concentration thereof was 5 μg/mL. Subsequently, the expression of the hair growth marker in the HFDPCs seeded on the receiver plate was measured by quantitative real-time PCR after 2 hours, 6 hours, and 12 hours. As the hair growth markers, a CTNNB1 gene (β-catenin), an ALPL gene (alkaline phosphatase), and an FGF1 gene (fiblobrast growth factor 1) were measured. […]

[2] = test system: dorsal skin; assay: Gene ontology (GO), GO enrichment and tissue-specific expression analysis of transcriptome, Experimental Example 7; type: in vivo, mouse; conditions: 20th day
Method: Gene ontology (GO) analysis and GO enrichment analysis were performed based on the results of the transcriptome analysis in Experimental Example 6.
Subsequently, term enrichment analysis of the genes with expression increased specifically with respect to the skin tissue was performed. Using tissue-specific expression analysis (TSEA), genes related to the skin tissue were filtered, and functions that were specifically enriched in the maslinic acid treatment group and the tieghemelin treatment group and were not enriched in the minoxidil treatment group were selected.

[3] = test system: Iqcb1; assay: Iqcb1 expression from transcriptome / extended network analysis, Experimental Example 8; type: in vivo, mouse; conditions: dorsal skin, 20th day, 1% applied daily
Method: (§1) Extended network analysis was performed based on the results of the transcriptome analysis in Experimental Example 6. FIGS. 20 to 22 are views showing the results of the extended network analysis. FIG. 20 is an analysis result obtained from a dataset of the minoxidil treatment group, FIG. 21 is an analysis result obtained from a dataset of the maslinic acid treatment group, and FIG. 22 is an analysis result obtained from a dataset of the tieghemelin treatment group. In FIGS. 20 to 22, a white circle indicates a gene with increased expression, and a black circle indicates a gene with decreased expression. In addition, the size of the circle indicates the magnitude of a change in expression level.
DDX58 is an innate immune receptor that senses viral nucleic acids in the cytoplasm and activates a downstream signal transduction cascade leading to the production of type I interferons or inflammatory cytokines. IQCB1 is a protein known to be involved in formation of cilium.

[4] = test system: C3H male mouse; assay: Hair growth promoting effect in vivo, application to depilated dorsal skin, Experimental Example 5
Method: The oleanane-type triterpenoid was applied to the dorsal skin of a mouse and the hair growth promoting effect was examined. Maslinic acid was used as the oleanane-type triterpenoid. In addition, for comparison, a group in which minoxidil was used and a control group in which only a solvent was applied were prepared.
FIG. 12 is a schematic view showing an experimental schedule. After acclimatization of a C3H male mouse, the dorsal skin was depilated with a shaver and a depilatory cream. Thereafter, 150 μL of 1% minoxidil (n=8), 1% maslinic acid (n=6), or a solvent (n=8) was applied to the mouse in each group every day for 20 days, and the mouse was observed over time.
It is known that the hair cycle of a mouse has three stages of an anagen, a catagen, and a telogen. During the anagen (the 1st day to the 16th day), the hair follicle grows into the deep subcutaneous part. In the catagen (the 17th day to the 19th day), the hair follicle stops growing and regresses to the upper subcutaneous part. In the telogen (the 20th day to the 29th day), the hair shaft is in a state where it can be lost at any time. It is known that the color of the dorsal skin of a mouse changes to pink, gray, and black due to the hair cycle. FIG. 13 is a view showing a change in the color of the dorsal skin of a mouse due to the hair cycle.

[5] = test system: dorsal skin; assay: Fluorescence immunostaining of dorsal skin tissue sections, Experimental Example 10; type: in vivo, mouse; conditions: 20th day
From the text: A mouse in each group of Experimental Examples 5 and 6 was euthanized on the 20th day, the dorsal skin was collected, and the tissue section was subjected to immunostaining.
FIG. 23 is a photomicrograph showing the results of detecting the expressions of β-catenin and K14 by fluorescence immunostaining. In addition, the nuclei were stained with 4′,6-diamidino-2-phenylindole (DAPI). The β-catenin is a hair growth promoting marker and is also a marker for the start of the anagen. K14 is an epidermal marker and is known to increase with the differentiation of hair follicle stem cells.
FIG. 24 is a photomicrograph showing the results of detecting the expression of VEGF by fluorescence immunostaining. In addition, the nuclei were stained with DAPI. VEGF is known to improve the vascularization of hair follicles, increase the size of hair follicles and hair, and promote the growth and circulation of hair follicles.

[6] = test system: dorsal skin; assay: Transcriptome analysis and extended network analysis of dorsal skin, Experimental Examples 6 and 8; type: in vivo, mouse; conditions: 20th day, 1% applied daily; maslinic acid group vs tieghemelin group
Method: A mouse in each group of Experimental Example 5 and a mouse in the group which had been subjected to the same treatment as in Experimental Example 5 using 1% tieghemelin (n=6) were euthanized on the 20th day, and the dorsal skin was collected and subjected to transcriptome analysis.
as §1

[7] = test system: hair cycle-related genes; assay: Fluctuation in expression of hair cycle-related genes from transcriptome, Experimental Example 9; type: in vivo, mouse; conditions: dorsal skin, 20th day
From the text: A fluctuation in expression of the hair cycle-related genes was examined, based on the results of the transcriptome analysis in Experimental Example 6.

[8] = fluorescence immunostaining, dorsal skin

## CC(C)(C)NC(=O)[C@H]1CC[C@H]2[C@@H]3CC[C@H]4NC(=O)C=C[C@]4(C)[C@H]3CC[C@]12C [finasteride]
[1]
  expression of the hair growth marker (CTNNB1, ALPL, FGF1) in HFDPCs: induced the expression of the hair growth marker regardless of the treatment time

## CC1(C)CC[C@]2(C(=O)O)CC[C@]3(C)C(=CC[C@@H]4[C@@]5(C)C[C@@H](O)[C@H](O)C(C)(C)[C@@H]5CC[C@]43C)[C@@H]2C1 [maslinic acid]
[2]
  number of genes with decreased expression common among the minoxidil, maslinic acid and tieghemelin treatment groups: 316
  number of genes with decreased expression common between the minoxidil and maslinic acid treatment groups: Seventy-two
  number of genes with increased expression common among the minoxidil, maslinic acid and tieghemelin treatment groups: 342
  number of genes with increased expression common between the minoxidil and maslinic acid treatment groups: Eighty-one
[2]; functions not enriched in the minoxidil treatment group
  functions specifically enriched among skin-tissue genes with increased expression (TSEA): skin barriers, keratinocytes, proliferation of epithelial cells, pigmentation, and interactions between cytokines and cytokine receptors
[3]
  Iqcb1 expression: upregulated
  expression level of Iqcb1 compared with the minoxidil treatment group: increased more
[4]; 10th day, 1% applied daily
  black area indicating the late anagen, vs control group: larger black area
  speed of a transition from the telogen to the anagen (order): Minoxidil≈Maslinic acid>Control group
[4]; 20th day, 1% applied daily
  hair cycle stage observed on the 20th day: transitioned to the next telogen
  speed of transition to the telogen after the anagen and the catagen (order): Minoxidil=Maslinic acid>Control group
[4]; 150 μL of 1% applied daily, control transitioned from telogen to anagen on the 10th day
  hair cycle stage observed on the 10th day: transition to the late anagen
[4]; 150 μL of 1% applied to dorsal skin every day for 20 days
  influence on the body weight of the mouse: No influence on the body weight
[5]; dorsal skin section
  sizes of the hair follicle and the hair shaft: increased
[5]; [8]
  expression of K14: increase in the expression
  expression of VEGF: increased
  expression of β-catenin: increase in the expression
[6]
  pattern of differentially expressed genes in the dorsal skins: showed the same pattern
[7]
  expression level of BMP4: decreased
  expression of NF-κB: decreased
